The results in this text go back to PubChem BioAssay (NCI).

Molecules are shown by their SMILES. Several values for one entry are separate records, joined by “and”; a condition that tells them apart may be missing. Equal values may be shown once.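 Method: 48-hour compound exposure of cells in 96-well plates, five concentrations, linear interpolation of endpoints. Abbreviation: GI50, concentration required for 50% inhibition of growth. TGI denotes the concentration required for complete inhibition of growth.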

Common to all, as to assay: growth of human tumour cells (NCI), 48 h
For assay [1], the system named is ACHN renal.
The test system of assay [2] is OVCAR-5 ovarian.
For assay [3], the system named is RPMI-8226 leukemia.
The subject of assay [4] is KM12 colon.
Assay [5] relates to OVCAR-4 ovarian.
The test system of assay [6] is MALME-3M melanoma.
Assay [7] relates to UACC-62 melanoma.
The test system of assay [8] is LOX IMVI melanoma.
Assay [9] deals with K-562 leukemia.
Assay [10] has as its system HOP-62 NSCLC.

Regarding `COc1ccc(-c2ccc3ncc4c(c3c2)n(-c2ccc(N3CCNCC3)c(C(F)(F)F)c2)c(=O)n4C)cn1`, the GI50 in assay [1] was < 0.01 µM and 0.00959 µM; in assay [2], < 0.0115 µM and 0.00752 µM; in assay [3], < 10 nM and 3.74 nM; in assay [4] it was < 0.01 µM and 0.0117 µM; in [5] it was < 0.01 µM and 0.0029 µM; in assay [6] it was < 10 nM and 4.04 nM. Moreover, the GI50 is < 10 nM and 5.99 nM in assay [7]; < 0.01 µM and 0.00403 µM in assay [8]; 0.00843 µM in [9]; < 0.01 µM and 0.0119 µM in assay [10]. In addition, the TGI was 1.1 µM and 0.782 µM in assay [1]; 0.163 µM and 0.0549 µM in assay [3]; 0.694 µM and 0.406 µM in assay [4]; 0.0207 µM and 0.0252 µM in [5]; 0.03 µM and 0.0353 µM in assay [6]; 0.0269 µM and 0.0286 µM in [7]. The TGI in assay [8] was 0.359 µM and 0.0882 µM; in assay [9] it was 0.204 µM; in assay [10] it was 0.378 µM and 0.428 µM.
As for `CSC1=Nc2c(c(C)c(-c3ccccc3)n2CCCCl)C2=NC(=O)CN12`, the GI50 in assay [1] is 9.48 µM; in assay [2], 11.6 µM; in [3] it was 3680 nM; in assay [4], 4.2 µM; in [5], 6.74 µM; in [6] it was 8380 nM. Besides, the GI50 in assay [7] is 2080 nM; in assay [8] it was 4.13 µM; in assay [9], 5.77 µM; in [10], 11 µM. In addition, the TGI in assay [1] came to 37.7 µM; in [2] it was 37.8 µM; in [3], 66.5 µM; in assay [4], 18.7 µM; in [5] it was 44.9 µM; in [6], 23.5 µM. In addition, the TGI in assay [7] was 11.6 µM; in assay [8], 17.6 µM; in [9], more than 100 µM; in assay [10], 63.1 µM.
Turning to `CCN1CCC2(CC1)NC(=O)c1c(c3ccc(Cl)c(Cl)c3n1C)C2C#N` (stereo unspecified), the GI50 in assay [1] is 2.92 µM; in [2], 1.98 µM; in [3] it was 1550 nM; in [5] it was 3.83 µM; in [6], 1760 nM; in assay [7], 1770 nM. Further, the GI50 in [8] was 1.65 µM; in assay [9], 2.19 µM; in [10] it was 1.61 µM. Besides, the TGI in [1] turned out to be 12.8 µM; in [2], 5.79 µM; in assay [3], 4.59 µM; in assay [5], 15.1 µM; in [6] it was 3.37 µM; in assay [7], 3.32 µM. Moreover, the TGI in assay [8] was 3.34 µM; in assay [9] it was 6.21 µM; in assay [10], 3.13 µM.
`NCCn1ccc(NC(c2ccccc2)(c2ccccc2)c2ccccc2)nc1=O`: the TGI in assay [1] was more than 100 µM; in assay [2] it was more than 100 µM; in [3], 46.3 µM; in assay [4], 52.3 µM; in [5], more than 100 µM; in assay [6], 33.4 µM. Besides, the TGI in assay [8] worked out at 30.5 µM; in assay [9], 44.9 µM; in [10], 73.8 µM.
With `COc1cc[c]([Sb]([Br])([CH]=C(C)C)([CH]=C(C)C)[CH]=C(C)C)cc1`, the GI50 is 21.7 µM in assay [1]; 868 nM in assay [3]; 1.98 µM in assay [4]; 5.89 µM in [5]; 2280 nM in [6]; 3410 nM in assay [7]. Besides, the GI50 in assay [8] is 15.7 µM; in [9], 4.54 µM; in [10], 29.5 µM. For the same compound, the TGI in assay [1] was more than 100 µM; in assay [3] it was 5.47 µM; in assay [4], 25.6 µM; in assay [5], more than 100 µM; in assay [6], more than 100 µM; in assay [7] it was more than 100 µM. Moreover, the TGI in assay [8], in [9] and in assay [10] was more than 100 µM throughout.
As to `CCCCNC(=O)OCC(COc1ccccc1OC)OC(=O)NCCCC` (stereo unspecified), the TGI in assay [1], in assay [3], in assay [4], in assay [5], in assay [6] and in assay [7] was more than 100 µM each time. For the same compound, the TGI in assay [8], in assay [9] and in [10] was more than 100 µM each time.
As to `COc1ccc2c(c1)CC[C@@H]1[C@@H]2CC[C@]2(C)c3[nH]ncc3C[C@@H]12`, the GI50 was 19 µM in assay [1]; 20.2 µM in [2]; 10200 nM in assay [3]; 10.1 µM in assay [4]; 15.4 µM in assay [5]; 11700 nM in assay [6]. Also, the GI50 in assay [7] was 17200 nM; in assay [8], 10.8 µM; in [10], 24.7 µM. Moreover, the TGI in assay [1] was more than 50 µM; in assay [2], more than 50 µM; in [3], 32.8 µM; in assay [4], 21.6 µM; in assay [5], more than 50 µM; in [6], 27 µM. Besides, the TGI is more than 50 µM in assay [7], 33.3 µM in assay [8] and more than 50 µM in assay [10].
With `O=S(=O)(CC#CCCCOCC#Cc1ccccc1C#CCS(=O)(=O)c1ccccc1)c1ccccc1`, the GI50 in assay [1] was 24.3 µM; in assay [2], 24.8 µM; in [3], 11600 nM; in assay [4], 33.2 µM; in assay [6], 20600 nM; in assay [7], 17700 nM. The GI50 is 8.1 µM in [8], 15.9 µM in assay [9] and 31.7 µM in [10]. The TGI is 55 µM in assay [1]; 55.3 µM in assay [2]; 31.4 µM in [3]; more than 100 µM in assay [4]; 59.7 µM in assay [6]; 39.7 µM in [7]. Moreover, the values for the TGI in assay [8], in [9] and in [10] were 24.8 µM, 39.6 µM and more than 100 µM, respectively.
Consider `CSc1c(S(C)=O)[nH]c2cc(Br)cc(Br)c12` (stereo unspecified), for which the TGI came out at 88.2 µM in assay [1]; 57.7 µM in assay [3]; 62.6 µM in assay [4]; 48.8 µM in assay [6]; 39.3 µM in [7]; 31.9 µM in [8]. For the same compound, in assay [9], the TGI was determined as 72.3 µM.
